Experimental data: US20070207154A1, “METHOD OF MODULATING VASCULARIZATION” (priority 2004, published 2007)

System: sprouting from wild-type, TFΔCT and PAR-2-deficient aortas
Assay: ex vivo angiogenesis assay (aortic ring sprouting in Matrigel)
Assay type: cell-based, mouse
Details: for sprouting induced by single factor replacing serum: wild-type and TFΔCT aortas, EGM without serum, day 4, growth factors 20 ng/ml, VIIa 50 nM (FIG. 2c)
Procedure: Angiogenesis assays. The ex vivo angiogenesis assay was adopted from the rat aortic sprouting model described by Masson et al. Biol. Proced. […] Thoracic aortas from 8-11 week old wild-type, TFΔCT, PAR-2-deficient, and TFΔCT/PAR-2-deficient mice of either sex were embedded in Matrigel, and overlaid with EGM supplemented with 5% serum, growth factors, or inhibitors at the following concentrations: VEGF, bFGF, and PDGF: 20 ng/ml; hirudin: 500 nM, VIIai: […], NAPc2: […], NAP5: 1 μM, VIIa: 50 nM. In most cases, the number of aortic sprouts was determined at day 3 and 4 without knowledge of the genotype. Aortic ring RNA was isolated by Trizol (Invitrogen) extraction using standard procedures, digested with DNAaseI, followed by RT-PCR for β-actin and TF. […] Tests used 2 different virus doses, referred to as high (1.1×10^10 virus particles/ml) and low (5×10^9 particles/ml). For confocal fluorescence microscopy, aortic pieces with a minimum of surrounding Matrigel were fixed with 4% paraformaldehyde and methanol, incubated with primary and secondary antibodies (24 hours each), and mounted in anti-fade medium (Vector laboratories). Alternatively, cryosections of OCT-embedded aortas were fixed with acetone and stained as described above.

Substance: PDGF-AA: selective agonist for PDGF receptor a
- sprouting induced by single factor replacing serum: None of these factors promoted substantial sprouting

Substance: VEGF
- sprouting of aortas stimulated with VEGF in the absence of serum (VEGF 20 ng/ml, no serum, day 3 (FIG. 2a)): very limited sprouting
- difference in sprouting TFΔCT versus wild-type aortas with serum supplemented with VEGF (serum plus VEGF 20 ng/ml, day 3 (FIG. 2a)): did not abolish the difference in sprouting
- sprouting induced by single factor replacing serum: None of these factors promoted substantial sprouting

Substance: bFGF: pro-angiogenic growth factor
- sprouting induced by single factor replacing serum: None of these factors promoted substantial sprouting

Substance: hirudin [reference compound]
- effect of protease inhibitor on aortic sprouting (wild-type and TFΔCT aortas in serum, 3 days, hirudin 500 nM, NAP5 1 μM (FIG. 2b)): no effect on sprouting
